# Experiments:
# [1] = molecular target: T1, Steryl-sulfatase (Homo sapiens, UniProt P08842); experiment: Inhibition of recombinant human estrone sulfatase expressed in CHO cells using 4-methylumbelliferyl sulfate as substrate by Hanes plot analysis; format: cell-based
# T1 sequence (P08842 whole entry): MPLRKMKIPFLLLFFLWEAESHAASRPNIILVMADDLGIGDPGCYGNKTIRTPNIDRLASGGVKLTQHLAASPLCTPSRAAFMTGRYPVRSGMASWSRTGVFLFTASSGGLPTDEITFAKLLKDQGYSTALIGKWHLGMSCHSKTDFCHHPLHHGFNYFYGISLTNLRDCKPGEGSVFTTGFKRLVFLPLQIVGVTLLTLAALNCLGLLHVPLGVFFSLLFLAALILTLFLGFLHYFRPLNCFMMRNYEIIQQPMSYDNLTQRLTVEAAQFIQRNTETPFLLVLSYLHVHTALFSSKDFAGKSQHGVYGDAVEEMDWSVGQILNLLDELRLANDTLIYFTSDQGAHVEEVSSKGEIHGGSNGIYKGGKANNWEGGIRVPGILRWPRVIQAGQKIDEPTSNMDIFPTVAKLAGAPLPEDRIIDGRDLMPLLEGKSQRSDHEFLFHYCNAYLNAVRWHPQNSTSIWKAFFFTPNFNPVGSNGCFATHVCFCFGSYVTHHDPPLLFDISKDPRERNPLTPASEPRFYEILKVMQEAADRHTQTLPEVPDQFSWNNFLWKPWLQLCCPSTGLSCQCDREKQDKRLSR
# [2] = molecular target: T1, Steryl-sulfatase; experiment: Reversible inhibition of recombinant human estrone sulfatase using 4-methylumbelliferyl sulfate as substrate by Hanes plot analysis
Compound,Ki [1],Ki [2]
O=C(NN1[C@@H]2CC[C@H]1CC(C(=O)OCc1ccccc1)C2)NS(=O)(=O)c1ccc(Cl)cc1 (some centres not stated),890 nM,
O=C(O)c1ccc2sc(C34CC5CC(CC(C5)C3)C4)cc(=O)c2c1,,500 nM

# Reference: ChEMBL document CHEMBL3804784, “Sulfatase inhibitors for recidivist breast cancer treatment: A chemical review” (Eur J Med Chem, 2016)
